Test results taken from US20100008965A1, “BIOCOMPATIBLE MEDICAL PRODUCTS HAVING ENHANCED ANTI-THROMBOGENIC PROPERTIES” (priority 2008, published 2010).

Tests used:
[1] = tested on: HCAEC; assay: alpha-4 integrin function blocking cell binding assay, HCAEC; format: cell-based, human; settings: 0.5 μg antibody per 5×10^4 cells, 8 h; CS-1 p<0.05
Experimental: To verify that HCAEC or HUVEC adhesion to immobilized CS-1 polypeptides is specifically mediated via alpha-4-containing integrin heterodimers, alpha-4 integrin function blocking cell binding assays were performed. RGDS, EILEVPST, and CS-1 polypeptides were immobilized in Immobilizer™ Amino 96-well microplates. Microplate wells were prepared as described above. Trypsinized HCAEC or HUVEC suspensions were manually counted, aliquoted into two groups, and incubated for one hour on ice with one of the following antibodies at a concentration of 0.5 μg antibody per 5×10^4 cells: (a) mouse monoclonal IgG1 anti-human alpha-4-integrin (CD49d, clone P1H4) (Chemicon), or (b) mouse monoclonal IgG1 anti-human isotype-matched control (R&D Systems). Next, 5×10^4 cells suspended in their respective basal medium were added to wells containing immobilized peptide polypeptides and incubated for eight hours at 37° C. and a 5% CO2 atmosphere. Adherent cells were analyzed via crystal violet staining as described previously.
To differentiate whether HCAEC and HUVEC adhere to CS-1 peptides via an alpha-4 integrin-specific interaction, HCAEC and HUVEC adhesion assays to CS-1, RGDS, and EILEVPST peptides were performed following one hour endothelial cell incubations with either an alpha-4 integrin function blocking antibody or an IgG isotype-matched control antibody. The EILEVPST peptide served as the negative control cell adhesion peptide. The RGDS peptide served as an additional control. Endothelial cell adhesion to RGDS is primarily mediated by alpha-5-beta-1 integrins. Therefore, alpha-4 integrin function blocking should not have a significant effect on adhesion to RGDS. Thus, specificity of HCAEC and HUVEC binding to CS-1 via alpha-4 integrins could be tested.

[2] = tested on: HCAEC; assay: HCAEC spreading on coated glass slides, static; format: cell-based, human; settings: 5 μg/cm^2 coating, two hours, p<0.0001
Experimental: (§1) 22×25×1 mm glass slides (Electron Microscopy Sciences, Hatfield, Pa.) were washed sequentially in 100% acetone, ethanol and HCl (2:1), and deionized and Milli-Q H2O, followed by autoclave sterilization. Slides were coated with one of the following PBS-solubilized extracellular matrix proteins at 5 μg/cm^2: (a) human type I collagen (Sigma), (b) human plasma fibronectin (Chemicon), or (c) CS-1 peptide (American Peptide Company). All coated slides were dried overnight at room temperature, rinsed with PBS, and blocked with a 0.01% (w/v) heat-inactivated BSA-solution at room temperature for one hour. HCAEC or HUVEC were seeded onto the slides in basal medium at 1×10^4 cells/cm^2 and permitted to attach and spread for two hours at 37° C. Cells were fixed with 4% (w/v) paraformaldehyde and co-stained for fluorescence microscopic analysis using Texas Red®-X phalloidin (Molecular Probes, Eugene, Oreg.) and DAPI (EMB Chemicals, Inc., San Diego, Calif.). Fluorescence micrographs were captured through a 10× objective on a Nikon Diaphot 200 inverted epifluorescence microscope (Nikon, Inc., Melville, N.Y.) using an Olympus DP70 digital camera (Olympus America, Inc., Melville, N.Y.). Image Tool software package version 3.0 (University of Texas Health Science Center, San Antonio, Tex.) was used to quantify endothelial cell surface area.

[3] = tested on: HUVEC; assay: HUVEC spreading on coated glass slides, static; format: cell-based, human; settings: 5 μg/cm^2 coating, two hours, p<0.01
Experimental: as §1

[4] = tested on: human platelets; assay: 51Cr-labeled platelet adhesion to immobilized ECM proteins under shear flow; format: cell-based; settings: 16.5 dyne/cm^2, one hour; non-activated and thrombin-activated; versus CS-1 and glass control
Experimental: Characterization of human platelet adhesion to immobilized extracellular matrix proteins was performed by subjecting non-activated or thrombin-activated human platelets to a shear stress τ=16.5 dyne/cm^2 for one hour using a peristaltic pump-driven parallel plate fluid flow system. Washed human platelets were isolated as described above, resuspended in platelet washing buffer (PWB), and adjusted to a final concentration of approximately 0.5-1.0×10^9 platelets/ml. The platelet suspensions were incubated for thirty minutes at room temperature with 25 μCi/ml Na2^51CrO4 (GE Healthcare, Piscataway, N.J.). ^51Cr-labeled platelets were centrifuged at 2000×g for three minutes at room temperature and resuspended in 20 ml fresh frozen plasma previously thawed and warmed to 37° C. The ^51Cr-platelet/plasma solution was distributed equally (5 ml) into each of four reservoirs containing an additional 50 ml of 37° C. human plasma. For thrombin-activated platelets, 1 U thrombin (Sigma) per 3 ml platelet suspension was added immediately prior to aliquoting the ^51Cr-platelet/plasma solution into the flow loop reservoirs.
75×38×1 mm glass microscope slides were coated with ECM proteins as described above. Slides were incubated for one hour at room temperature with a 0.25% (w/v) sterile-filtered BSA solution. […]

[5] = tested on: human platelets; assay: DiOC6-labeled platelet adhesion imaging under shear flow; format: cell-based; settings: 16.5 dyne/cm^2, one hour, platelets activated prior to flow
Experimental: To visualize shear stress-mediated platelet adhesion to the immobilized ECM proteins, non-radiolabeled non-activated or thrombin-activated human platelets were prepared as described above, but were first incubated for ten minutes at room temperature with a 10 μM DiOC6 (dihexaoxacarbocyanine iodide) (Sigma) solution prior to being subjected to flow for one hour at a shear stress τ=16.5 dyne/cm^2. Post-flow, all slides were rinsed twice with PBS and fixed with 4% (w/v) paraformaldehyde. Platelet adhesion was visualized on a Nikon Diaphot 200 inverted epifluorescence microscope (Nikon) at 488 nm using a 40× objective. Images were captured using an Olympus DP70 digital camera (Olympus America, Inc.) and analyzed using the Adobe® Photoshop® software package version 6.0 (Adobe Systems Incorporated, San Jose, Calif.).

CS-1: full-length 25 amino acid polypeptide, first 25 amino acid sequence of the fibronectin type IIICS domain (DELPQLVTLPHPNLHGPEILDVPST; Homo sapien)
difference in HCAEC adhesion between IgG isotype control and alpha-4 integrin blocking antibody treated cells [1]: A statistical difference was achieved
HCAEC spread area relative to the non-ECM-coated control substrate [2]: statistically significant increase
HUVEC spread area relative to the non-ECM-coated control substrate [3]: statistically significant increase
flowed platelet binding (51Cr), both states of activation [4]: lack of significant upregulation in platelet binding
thrombin-activated platelet adhesion and thrombus formation (DiOC6 images) [5]: higher binding to the CS-1 substratum relative to their non-activated counterparts
